Legend:
Conditions in all cases: 72 h
[1] = test system: myeloid leukemia patient primary cells Pat.9; assay: area under dose-response curve (viability, 1 nM-10 uM) (fraction (0-1)); higher = more sensitive
Method: (§1)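 AUC (0–1, higher = more sensitive) of the 5-point dose–response (1 nM–10 µM, 72 h, CellTiter-Glo) in primary AML/CML patient mononuclear cells. 0.030103 is the floor for inactive compounds.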

[2] = test system: myeloid leukemia patient primary cells Pat.8; assay: as above
Method: as §1

[3] = test system: myeloid leukemia patient primary cells Pat.3; assay: as above
Method: as §1

[4] = test system: myeloid leukemia patient primary cells Pat.11; assay: as above
Method: as §1

[5] = test system: myeloid leukemia patient primary cells Pat.2; assay: as above
Method: as §1

[6] = test system: myeloid leukemia patient primary cells Pat.4; assay: as above
Method: as §1

[7] = test system: myeloid leukemia patient primary cells Pat.7; assay: as above
Method: as §1

[8] = test system: myeloid leukemia patient primary cells Pat.1; assay: as above
Method: as §1

[9] = test system: myeloid leukemia patient primary cells Pat.6; assay: as above
Method: as §1

[10] = test system: myeloid leukemia patient primary cells Pat.14; assay: as above
Method: as §1

[11] = test system: myeloid leukemia patient primary cells Pat.12; assay: as above
Method: as §1

[12] = test system: myeloid leukemia patient primary cells Pat.15; assay: as above
Method: as §1

[13] = test system: myeloid leukemia patient primary cells Pat.5; assay: as above
Method: as §1

[14] = test system: myeloid leukemia patient primary cells Pat.13; assay: as above
Method: as §1

[15] = test system: myeloid leukemia patient primary cells Pat.10; assay: as above
Method: as §1

[16] = test system: myeloid leukemia patient primary cells Pat.9; assay: cell viability (% survival relative to DMSO control); higher = less cytotoxic
Procedure, shortened: (§2)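 Where an area under the curve appears, it was computed with the drc and PharmacoGx R packages from log-logistic fits. Those fits used four parameters. The underlying viability data came from CellTiter-Glo after 72 h, normalised to DMSO and 10 μM proteasome-inhibitor wells, with thawed, Ficoll-purified AML or CML patient mononuclear cells at 10,000 cells/well in RPMI 1640 with 10% FBS on 384-well plates pre-printed with 70 compounds at five tenfold concentrations (1–10,000 nM) in duplicate.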

[17] = test system: myeloid leukemia patient primary cells Pat.11; assay: as above
Procedure, shortened: as §2

[18] = test system: myeloid leukemia patient primary cells Pat.2; assay: as above
Procedure, shortened: as §2

[19] = test system: myeloid leukemia patient primary cells Pat.1; assay: as above
Procedure, shortened: as §2

[20] = test system: myeloid leukemia patient primary cells Pat.5; assay: as above
Procedure, shortened: as §2

[21] = test system: myeloid leukemia patient primary cells Pat.13; assay: as above
Procedure, shortened: as §2

[22] = test system: HL-60; assay: cell viability (% survival relative to DMSO control); higher = less cytotoxic
Procedure, shortened: (§3)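 In 384-well plates, the full library was rescreened in duplicate on HL-60 cells in RPMI 1640 with 10% FBS, at 1–10,000 nM in five tenfold concentrations, for 72 h at 37 °C, 5% CO2. Each run also held DMSO or 100 nM of one of three metabolic inhibitors. Viability was measured by CellTiter-Glo and normalised to DMSO wells and to wells with proteasome inhibitor, present at 10 μM. Any area under the curve comes from four-parameter log-logistic fitting with drc and PharmacoGx.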

[23] = test system: HL-60; assay: area under dose-response curve (viability, 1 nM-10 uM) (fraction (0-1)); higher = more sensitive
Procedure, shortened: as §3

O=C(c1c2ccccc2cc2ccccc12)N1CCC(N2CCC[C@@H](C(=O)N3CCOCC3)C2)CC1
Conditions | area under dose-response curve
[1] | 0.327
[2] | < 0.0301
[3] | < 0.0301
[4] | < 0.0301
[5] | < 0.0301
[6] | < 0.0301
[7] | 0.312
[8] | < 0.0301
[9] | < 0.0301
[10] | < 0.0301
[11] | < 0.0301
[12] | < 0.0301
[13] | 0.309
[14] | < 0.0301
[15] | < 0.0301

Conditions | area under dose-response curve, co-treatment: AZD3965 100 nM | area under dose-response curve, co-treatment: DMSO vehicle | area under dose-response curve, co-treatment: GSK2194069 100 nM | area under dose-response curve, co-treatment: pictilisib 100 nM | cell viability, 1 nM [%] | cell viability, 10 nM [%] | cell viability, 100 nM [%] | cell viability, 1000 nM [%] | cell viability, 10000 nM [%]
[16] | – | – | – | – | 63.1 | 88.4 | 77.5 | 2.84 | 71.4
[17] | – | – | – | – | 99.3 | > 100 | 92.5 | 72.6 | 98
[18] | – | – | – | – | 94.4 | 99.4 | 98 | 75.4 | 98.1
[19] | – | – | – | – | > 100 | 83 | > 100 | 58.3 | 96.7
[20] | – | – | – | – | 89.3 | 67.2 | 94.9 | 0.265 | 69.8
[21] | – | – | – | – | 85.6 | 89.6 | 92.9 | 62.8 | 86.7
[23] | < 0.0301 | < 0.0301 | < 0.0301 | < 0.0301 | – | – | – | – | –

cell viability [%], [22]
Conditions | 0.001 µM | 0.01 µM | 0.1 µM | 1 µM | 10 µM
co-treatment: AZD3965 100 nM | 93.6 | 96.9 | 102 | 101 | 83.4
co-treatment: DMSO vehicle | 103 | 100 | 105.5 | 101 | 94.5
co-treatment: GSK2194069 100 nM | 92.4 | 95.1 | 98.29 | 122 | 95.7
co-treatment: pictilisib 100 nM | 93.4 | 100 | 103 | 98.8 | 78.8

c1ccc2c(c1)SCc1c-2[nH]c2ccccc12
Conditions | area under dose-response curve
[1] | 0.397
[2] | 0.139
[3] | 0.37
[4] | 0.148
[5] | 0.142
[6] | 0.192
[7] | 0.259
[8] | 0.132
[9] | 0.14
[10] | 0.403
[11] | 0.165
[12] | 0.22
[13] | 0.787
[14] | 0.176
[15] | 0.505

Conditions | area under dose-response curve, co-treatment: AZD3965 100 nM | area under dose-response curve, co-treatment: DMSO vehicle | area under dose-response curve, co-treatment: GSK2194069 100 nM | area under dose-response curve, co-treatment: pictilisib 100 nM | cell viability, 1 nM [%] | cell viability, 10 nM [%] | cell viability, 100 nM [%] | cell viability, 1000 nM [%] | cell viability, 10000 nM [%]
[16] | – | – | – | – | 91.9 | 34.7 | 71 | 2.02 | 5.35
[17] | – | – | – | – | > 100 | 94.7 | 99.1 | 89.8 | 0.682
[18] | – | – | – | – | 96.8 | 89.3 | 97.2 | 86.9 | 3.43
[19] | – | – | – | – | 95.2 | 64.7 | 96.7 | 85.8 | 0.548
[20] | – | – | – | – | 82.4 | 5.49 | 44.4 | 7.88 | 2.27
[21] | – | – | – | – | 90.5 | 72.1 | 92.1 | 61.1 | 22.6
[23] | < 0.0301 | < 0.0301 | < 0.0301 | < 0.0301 | – | – | – | – | –

cell viability [%], [22]
Conditions | 0.001 µM | 0.01 µM | 0.1 µM | 1 µM | 10 µM
co-treatment: AZD3965 100 nM | 80.9 | 94.8 | 107 | 117 | 94.6
co-treatment: DMSO vehicle | 102.4 | 101.01 | 98.13 | 101 | 96.9
co-treatment: GSK2194069 100 nM | 96.7 | 100.7 | 103 | 96.4 | 93.2
co-treatment: pictilisib 100 nM | 90.3 | 86.7 | 104 | 105 | 98.9

Oc1ncc(F)c(O)n1 [5-fluorouracil]
Conditions | area under dose-response curve
[1] | 0.0717
[2] | < 0.0301
[3] | 0.0441
[4] | < 0.0301
[5] | < 0.0301
[6] | 0.0407
[7] | 0.0322
[8] | < 0.0301
[9] | < 0.0301
[10] | < 0.0301
[11] | < 0.0301
[12] | < 0.0301
[13] | 0.188
[14] | < 0.0301
[15] | 0.0668

Conditions | area under dose-response curve, co-treatment: AZD3965 100 nM | area under dose-response curve, co-treatment: DMSO vehicle | area under dose-response curve, co-treatment: GSK2194069 100 nM | area under dose-response curve, co-treatment: pictilisib 100 nM | cell viability, 1 nM [%] | cell viability, 10 nM [%] | cell viability, 100 nM [%] | cell viability, 1000 nM [%] | cell viability, 10000 nM [%]
[16] | – | – | – | – | 76.6 | 52.3 | 92.6 | 71.4 | 45.4
[17] | – | – | – | – | 99.9 | 97.2 | 96.6 | 96.7 | 95.7
[18] | – | – | – | – | 95.9 | 94.9 | 99.1 | 88.9 | 97.5
[19] | – | – | – | – | 88.5 | 93.1 | 91 | 97 | 85.8
[20] | – | – | – | – | 88.1 | 90.3 | 84.7 | 61.3 | 13.9
[21] | – | – | – | – | 88.8 | 91.2 | 90 | 72.7 | 81
[23] | < 0.0301 | < 0.0301 | < 0.0301 | < 0.0301 | – | – | – | – | –

cell viability [%], [22]
Conditions | 0.001 µM | 0.01 µM | 0.1 µM | 1 µM | 10 µM
co-treatment: AZD3965 100 nM | 97.8 | 98.3 | 102 | 102.9 | 55
co-treatment: DMSO vehicle | 101.99 | 97.89 | 98.8 | 102 | 76.1
co-treatment: GSK2194069 100 nM | 99.6 | 104 | 99 | 100 | 75.9
co-treatment: pictilisib 100 nM | 102 | 75.9 | 113 | 96.5 | 68.7

Reference: the supplement of paper PMC8671470
